Measured values as given in ChEMBL document CHEMBL5465560, “Selectivity Literature for EUbOPEN Chemogenomic Library” (2024).
Blank lines part the entries; values can stand above or below the compound they belong to.

Assays:
[1] = target: T1, Cyclin-G-associated kinase (Homo sapiens) (UniProt O14976); conditions: at 10 µM
T1 sequence (whole entry): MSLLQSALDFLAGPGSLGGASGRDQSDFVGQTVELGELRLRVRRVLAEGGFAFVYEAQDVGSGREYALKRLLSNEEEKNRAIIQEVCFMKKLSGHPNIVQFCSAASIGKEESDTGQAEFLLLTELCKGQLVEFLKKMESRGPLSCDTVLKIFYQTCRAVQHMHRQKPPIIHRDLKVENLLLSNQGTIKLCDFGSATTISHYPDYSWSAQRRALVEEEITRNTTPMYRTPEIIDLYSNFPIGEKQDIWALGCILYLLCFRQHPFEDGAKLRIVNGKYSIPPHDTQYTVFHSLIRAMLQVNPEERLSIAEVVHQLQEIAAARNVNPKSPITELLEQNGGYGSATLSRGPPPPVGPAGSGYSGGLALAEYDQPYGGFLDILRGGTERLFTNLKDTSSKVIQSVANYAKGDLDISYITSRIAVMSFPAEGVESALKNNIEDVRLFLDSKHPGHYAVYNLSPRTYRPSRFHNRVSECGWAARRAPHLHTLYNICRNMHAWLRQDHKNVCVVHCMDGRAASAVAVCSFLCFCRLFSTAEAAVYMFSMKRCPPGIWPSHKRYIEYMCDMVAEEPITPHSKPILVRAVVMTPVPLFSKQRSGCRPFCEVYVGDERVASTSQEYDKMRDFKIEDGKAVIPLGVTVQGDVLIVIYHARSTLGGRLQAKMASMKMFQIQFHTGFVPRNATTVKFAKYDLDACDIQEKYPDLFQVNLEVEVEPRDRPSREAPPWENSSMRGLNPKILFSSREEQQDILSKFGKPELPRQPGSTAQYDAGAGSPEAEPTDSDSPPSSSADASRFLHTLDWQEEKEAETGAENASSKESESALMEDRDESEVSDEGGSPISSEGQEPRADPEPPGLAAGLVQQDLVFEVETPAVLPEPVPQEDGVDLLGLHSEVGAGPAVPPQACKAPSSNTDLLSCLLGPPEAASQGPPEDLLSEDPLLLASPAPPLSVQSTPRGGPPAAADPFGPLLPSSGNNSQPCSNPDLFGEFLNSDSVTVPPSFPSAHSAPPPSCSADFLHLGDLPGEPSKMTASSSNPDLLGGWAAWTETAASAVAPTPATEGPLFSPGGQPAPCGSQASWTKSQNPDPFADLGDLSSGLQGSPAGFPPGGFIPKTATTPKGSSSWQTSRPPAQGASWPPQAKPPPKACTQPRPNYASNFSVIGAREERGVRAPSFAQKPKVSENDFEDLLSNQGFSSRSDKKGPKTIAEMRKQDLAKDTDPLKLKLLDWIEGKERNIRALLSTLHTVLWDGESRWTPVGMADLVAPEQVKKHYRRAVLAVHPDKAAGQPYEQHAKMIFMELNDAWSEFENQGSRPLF

[2] = target: T2, Serine/threonine-protein kinase Nek9 (Homo sapiens) (UniProt Q8TD19); experiment: Selectivity interaction (Kinase panel (Invitrogen)) EUB0000639a NEK9; conditions: at 200 nM
T2 sequence (whole entry): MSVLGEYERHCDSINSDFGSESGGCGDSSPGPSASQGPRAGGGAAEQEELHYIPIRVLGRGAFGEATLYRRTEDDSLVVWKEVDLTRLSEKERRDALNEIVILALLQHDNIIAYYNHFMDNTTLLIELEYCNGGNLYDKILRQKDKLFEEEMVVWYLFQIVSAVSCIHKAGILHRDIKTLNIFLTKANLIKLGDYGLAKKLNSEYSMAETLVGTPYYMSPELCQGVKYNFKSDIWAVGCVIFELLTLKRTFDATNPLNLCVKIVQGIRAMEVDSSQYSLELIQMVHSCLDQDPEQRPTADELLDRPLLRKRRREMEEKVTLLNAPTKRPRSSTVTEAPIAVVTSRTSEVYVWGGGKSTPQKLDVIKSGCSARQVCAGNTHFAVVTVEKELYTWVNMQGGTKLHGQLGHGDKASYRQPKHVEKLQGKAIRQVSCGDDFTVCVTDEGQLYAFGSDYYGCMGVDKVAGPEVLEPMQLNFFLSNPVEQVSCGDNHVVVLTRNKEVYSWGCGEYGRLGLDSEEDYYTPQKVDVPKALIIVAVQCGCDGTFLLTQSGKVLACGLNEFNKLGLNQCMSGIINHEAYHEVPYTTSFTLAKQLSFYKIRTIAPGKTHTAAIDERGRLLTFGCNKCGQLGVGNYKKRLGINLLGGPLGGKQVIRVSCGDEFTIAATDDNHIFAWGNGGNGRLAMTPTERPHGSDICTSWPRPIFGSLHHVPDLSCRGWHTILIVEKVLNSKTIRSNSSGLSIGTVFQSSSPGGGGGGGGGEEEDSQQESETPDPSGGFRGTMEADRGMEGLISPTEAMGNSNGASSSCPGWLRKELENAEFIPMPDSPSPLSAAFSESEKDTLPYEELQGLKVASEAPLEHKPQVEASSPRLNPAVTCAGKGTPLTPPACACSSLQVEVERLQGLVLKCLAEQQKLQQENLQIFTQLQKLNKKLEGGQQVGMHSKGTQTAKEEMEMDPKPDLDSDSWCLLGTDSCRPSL

[3] = target: Protein kinase C eta type (Homo sapiens) (UniProt P24723); experiment: Selectivity interaction (Kinase panel (Invitrogen)) EUB0000639a PRKCH; conditions: at 200 nM
Sequence of Protein kinase C eta type (Homo sapiens) (P24723 whole entry): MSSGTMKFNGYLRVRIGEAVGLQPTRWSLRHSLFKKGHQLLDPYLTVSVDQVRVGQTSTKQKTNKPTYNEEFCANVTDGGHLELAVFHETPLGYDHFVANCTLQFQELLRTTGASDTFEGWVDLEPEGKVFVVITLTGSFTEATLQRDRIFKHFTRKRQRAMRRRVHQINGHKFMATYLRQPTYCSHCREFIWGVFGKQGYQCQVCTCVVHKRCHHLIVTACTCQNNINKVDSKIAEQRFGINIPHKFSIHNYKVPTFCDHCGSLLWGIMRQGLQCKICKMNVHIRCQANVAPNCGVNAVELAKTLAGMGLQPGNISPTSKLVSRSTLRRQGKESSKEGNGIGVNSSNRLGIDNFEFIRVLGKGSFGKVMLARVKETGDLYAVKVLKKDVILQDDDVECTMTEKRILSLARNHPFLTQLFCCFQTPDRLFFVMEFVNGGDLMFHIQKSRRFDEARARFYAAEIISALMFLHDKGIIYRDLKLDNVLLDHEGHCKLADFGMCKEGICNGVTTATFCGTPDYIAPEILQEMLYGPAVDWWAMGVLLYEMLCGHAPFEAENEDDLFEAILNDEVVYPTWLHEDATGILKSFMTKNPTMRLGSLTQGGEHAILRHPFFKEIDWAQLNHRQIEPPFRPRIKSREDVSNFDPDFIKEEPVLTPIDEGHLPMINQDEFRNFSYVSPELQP

[4] = target: T3, Mitogen-activated protein kinase kinase kinase 7 (Homo sapiens) (UniProt O43318); experiment: Selectivity interaction (KinomeScan (DiscoverX)) EUB0001049a MAP3K7; conditions: at 1 µM
T3 sequence (whole entry): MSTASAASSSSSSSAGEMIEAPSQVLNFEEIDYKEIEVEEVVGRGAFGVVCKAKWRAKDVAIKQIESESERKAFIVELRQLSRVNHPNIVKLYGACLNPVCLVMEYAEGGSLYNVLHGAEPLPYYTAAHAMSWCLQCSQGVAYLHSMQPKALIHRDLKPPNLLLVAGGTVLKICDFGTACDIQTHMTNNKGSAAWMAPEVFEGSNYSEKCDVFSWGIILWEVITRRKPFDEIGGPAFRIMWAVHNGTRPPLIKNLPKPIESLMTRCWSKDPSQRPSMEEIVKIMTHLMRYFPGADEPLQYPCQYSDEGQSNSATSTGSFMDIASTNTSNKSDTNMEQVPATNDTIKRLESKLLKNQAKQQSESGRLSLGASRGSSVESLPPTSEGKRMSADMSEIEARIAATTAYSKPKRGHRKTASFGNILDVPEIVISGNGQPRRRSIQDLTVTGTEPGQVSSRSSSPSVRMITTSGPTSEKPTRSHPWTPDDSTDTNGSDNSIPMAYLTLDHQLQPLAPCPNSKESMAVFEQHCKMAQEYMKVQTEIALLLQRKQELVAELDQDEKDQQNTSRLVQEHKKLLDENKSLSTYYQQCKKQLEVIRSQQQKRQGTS

[5] = target: Phosphatidylinositol 3-kinase catalytic subunit type 3 (Homo sapiens, UniProt Q8NEB9); experiment: Selectivity interaction (Adapta Assay) EUB0001632a PIK3C3; conditions: at 10 µM
Sequence of Phosphatidylinositol 3-kinase catalytic subunit type 3 (Q8NEB9 whole entry): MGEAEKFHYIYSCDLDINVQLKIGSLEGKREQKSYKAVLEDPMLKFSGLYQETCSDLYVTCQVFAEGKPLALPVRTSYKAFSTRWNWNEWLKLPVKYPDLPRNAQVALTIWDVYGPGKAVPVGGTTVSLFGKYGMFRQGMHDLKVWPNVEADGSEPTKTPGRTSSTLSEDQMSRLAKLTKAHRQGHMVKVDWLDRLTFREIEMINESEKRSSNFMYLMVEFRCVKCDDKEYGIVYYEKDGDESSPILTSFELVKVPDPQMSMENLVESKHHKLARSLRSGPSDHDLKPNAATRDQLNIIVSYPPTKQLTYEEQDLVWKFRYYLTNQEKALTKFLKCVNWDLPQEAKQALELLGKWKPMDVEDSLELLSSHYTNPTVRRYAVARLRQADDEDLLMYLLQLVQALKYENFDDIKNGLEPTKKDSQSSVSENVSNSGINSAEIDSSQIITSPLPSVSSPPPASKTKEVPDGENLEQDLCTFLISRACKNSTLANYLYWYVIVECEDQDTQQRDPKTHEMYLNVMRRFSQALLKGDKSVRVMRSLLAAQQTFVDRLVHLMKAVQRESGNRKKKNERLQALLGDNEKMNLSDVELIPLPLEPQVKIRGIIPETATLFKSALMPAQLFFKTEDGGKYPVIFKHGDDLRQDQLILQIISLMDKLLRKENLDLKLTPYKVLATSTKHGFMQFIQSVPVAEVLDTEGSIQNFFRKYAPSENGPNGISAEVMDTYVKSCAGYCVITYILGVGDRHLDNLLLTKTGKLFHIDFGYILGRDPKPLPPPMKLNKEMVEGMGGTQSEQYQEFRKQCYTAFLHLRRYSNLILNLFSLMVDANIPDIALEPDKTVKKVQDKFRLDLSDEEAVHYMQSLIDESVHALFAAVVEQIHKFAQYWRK

SMILES: Cc1cc([C@@H](C)Nc2ccccc2C(=O)O)c2nc(N3CCOCC3)cc(=O)n2c1 [AZD-6482]
- % of control [1]: 75%

- % of inhibition [3]: 7.47%
SMILES: CC[C@@H]1[C@H](F)C(=O)N[C@@H]1COc1nccc2cc(C(N)=O)c(OC)cc12 [ZIMLOVISERTIB]
- % of inhibition [2]: 2.82%

SMILES: COc1cc(Nc2nc(C)cc(-c3cnn4nc(OC)ccc34)n2)cc(C(F)(F)F)c1
- % of control [4]: 73%

- % of inhibition [5]: -28%
SMILES: Cn1cc(-n2cnc3c(NCc4nc5cc(Cl)c(Cl)cc5[nH]4)nc(N4CCOCC4)nc32)cn1
